This note sets out measurements from patent publication US9376418B2, “Substituted pyridine spleen tyrosine kinase (SYK) inhibitors” (Merck Sharp & Dohme Corp., priority 2012, dated 2016).

The target of the assay is T1, recombinant human GST-SYK (Homo sapiens, UniProt P43405).
T1 construct: purchased Carna Biosciences 08-176
Nature of the assay: Homogeneous Time-Resolved Fluorescence (HTRF) assay for the recombinant human Syk enzyme. It counts as biochemical. Conditions: HTRF assay, recombinant human GST-SYK; IC50 given as class symbols; read-out: rhSYK Activity. Put shortly: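 GST-hSYK ([…]) was preincubated with inhibitor (0.1% DMSO) for 10 min at room temperature in Tris-HCl pH 7.5 with tween 20 and DTT. Biotinylated peptide (250 nM), Mg (5 mM) and ATP (25 μM) were added for 45 min. The reaction was quenched with EDTA, and phosphotyrosine was read by Eu-antibody/SA-APC HTRF after 30 min.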
A general note: Time-resolved FRET reads energy transfer from a long-lived donor to a nearby acceptor.
For the molecule `Cc1cc(Nc2nccc(C(F)(F)F)n2)cc(-c2ccc(NC(C)(C#N)CC(F)(F)F)nc2)c1` (centres unmarked) [Example 7.117, 4,4,4-trifluoro-2-methyl-2-{[5-(3-methyl-5-{[4-(trifluoromethyl)pyrimidin-2-yl]amino}phenyl)pyridin-2-yl]amino}butanenitrile], the IC50 lay within 100 to 1000 nM.

On to `Cc1cc(Nc2nccc(C(F)(F)F)n2)cc(-c2cncc(C(C)(C)O)c2)c1` [Example 9.71, 2-[5-(3-methyl-5-{[4-(trifluoromethyl)pyrimidin-2-yl]amino}phenyl)pyridin-3-yl]propan-2-ol], for which the IC50 is less than 100 nM.

On to `Cc1cc(Nc2nccc(C(F)(F)F)n2)cc(-c2ccc(C(=O)N(C)CC(N)=O)nc2)c1` [Example 16.62, N-(2-amino-2-oxoethyl)-N-methyl-5-(3-methyl-5-{[4-(trifluoromethyl)pyrimidin-2-yl]amino}phenyl)pyridine-2-carboxamide], for which the IC50 was less than 100 nM.

For `CCOC(=O)C1CCC(O)(c2ccc(-c3cc(C)cc(Nc4nccc(C(F)(F)F)n4)c3)cn2)CC1(C)C` (centres unmarked) [Example 9.42, ethyl 4-hydroxy-2,2-dimethyl-4-[5-(3-methyl-5-{[4-(trifluoromethyl)pyrimidin-2-yl]amino}phenyl)pyridin-2-yl]cyclohexanecarboxylate], the IC50 fell in the range of 100 to 1000 nM.

`Cc1cc(Nc2nccc(C(F)(F)F)n2)cc(-c2ccc(N[C@@H](CC(C)C)C(=O)O)nc2)c1` [Example 7.111, N-[5-(3-methyl-5-{[4-(trifluoromethyl)pyrimidin-2-yl]amino}phenyl)pyridin-2-yl]-L-leucine]: the IC50 is less than 100 nM.

`Cc1cc(Nc2nccc(C(F)(F)F)n2)cc(-c2ccnc(C(F)(F)F)c2)c1` [Example 2.123, N-{3-methyl-5-[2-(trifluoromethyl)pyridin-4-yl]phenyl}-4-(trifluoromethyl)pyrimidin-2-amine]: the IC50 lay in the range of 100 to 1000 nM.

Turning to `Cc1cc(Nc2nccc(C(F)(F)F)n2)cc(-c2ccc(N3CCC4(CCCCN4)CC3)nc2)c1` [Example 7.10, N-{3-[6-(1,9-diazaspiro[5.5]undec-9-yl)pyridin-3-yl]-5-methylphenyl}-4-(trifluoromethyl)pyrimidin-2-amine], the IC50 is 100 to 1000 nM.

As to `OC(c1ccccc1)c1ccc(-c2cccc(Nc3nccc(C(F)(F)F)n3)c2)cn1` (centres unmarked) [Example 2.42, phenyl[5-(3-{[4-(trifluoromethyl)pyrimidin-2-yl]amino}phenyl)pyridin-2-yl]methanol], the IC50 fell in the range of 100 to 1000 nM.

As for `Cc1cc(Nc2nccc(C)n2)cc(-c2ccc([C@]3(O)CC[C@@H](C(=O)O)CC3)nc2)c1` [Example 9.37, cis-4-hydroxy-4-(5-{3-methyl-5-[(4-methylpyrimidin-2-yl)amino]phenyl}pyridin-2-yl)cyclohexanecarboxylic acid], the IC50 was less than 100 nM.

For the molecule `OCCN(CCO)c1cccc(-c2cc(Nc3nccc(C(F)(F)F)n3)cc(N3CCOCC3)c2)n1` [Example 1.4, 2,2′-{[6-(3-morpholin-4-yl-5-{[4-(trifluoromethyl)pyrimidin-2-yl]amino}phenyl)pyridin-2-yl]imino}diethanol], the IC50 was 100 to 1000 nM.

With `O=C(O)CCc1ccnc(-c2cccc(Nc3nccc(C(F)(F)F)n3)c2)c1` [Example 2.18, 3-[2-(3-{[4-(trifluoromethyl)pyrimidin-2-yl]amino}phenyl)pyridin-4-yl]propanoic acid], the IC50 was in the range of 100 to 1000 nM.

On to `Cc1cc(Nc2nccc(C(F)(F)F)n2)cc(-c2ccc(NS(=O)(=O)CC(=O)O)nc2)c1` [Example 8.2, {[5-(3-Methyl-5-{[4-(trifluoromethyl)pyrimidin-2-yl]amino}phenyl)pyridin-2-yl]sulfamoyl}acetic acid], for which the IC50 is less than 100 nM.

For the molecule `Cc1cc(Nc2nccc(C(F)(F)F)n2)cc(-c2ccnc(N[C@H]3CCC(=O)NC3)c2)c1` [Example 15.67, (5S)-5-{[4-(3-methyl-5-{[4-(trifluoromethyl)pyrimidin-2-yl]amino}phenyl)pyridin-2-yl]amino}piperidin-2-one], the IC50 is less than 100 nM.

Take `Cc1cc(Nc2nccc(C(F)(F)F)n2)cc(-c2cncc(NCc3ccc[nH]c3=O)c2)c1` [Example 15.21, 3-({[5-(3-methyl-5-{[4-(trifluoromethyl)pyrimidin-2-yl]amino}phenyl)pyridin-3-yl]amino}methyl)pyridin-2(1H)-one]: the IC50 was less than 100 nM.

`Cc1cc(Nc2nccc(C(F)(F)F)n2)cc(-c2ccc(N3CCNC(=O)CC3)nc2)c1` [Example 7.27, 1-[5-(3-methyl-5-{[4-(trifluoromethyl)pyrimidin-2-yl]amino}phenyl)pyridin-2-yl]-1,4-diazepan-5-one]: the IC50 was less than 100 nM.

Regarding `Cc1cc(Nc2nccc(C(F)(F)F)n2)cc(-c2ccnc(NCC(=O)N(C)C)c2)c1` [Example 15.82, N,N-dimethyl-N~2~-[4-(3-methyl-5-{[4-(trifluoromethyl)pyrimidin-2-yl]amino}phenyl)pyridin-2-yl]glycinamide], the IC50 is 100 to 1000 nM.

Regarding `CC1(C)CC(O)(c2ccc(-c3cc(Nc4nccc(C(F)(F)F)n4)cc(C(F)F)c3)cn2)CCC1C(=O)O` (single isomer, unassigned) [Example 9.13, (1S,4R or 1R,4S)-4-{5-[3-(difluoromethyl)-5-{[4-(trifluoromethyl)pyrimidin-2-yl]amino}phenyl]pyridin-2-yl}-4-hydroxy-2,2-dimethylcyclohexanecarboxylic acid], the IC50 was less than 100 nM.

With `Cc1cc(Nc2nccc(C3CC3)n2)cc(-c2cncc(CCC(=O)O)c2)c1` [Example 2.102, 3-(5-{3-[(4-cyclopropylpyrimidin-2-yl)amino]-5-methylphenyl}pyridin-3-yl)propanoic acid], the IC50 was less than 100 nM.

In the case of `Cc1cc(Nc2nccc(C(F)(F)F)n2)cc(-c2cncc(C3(O)CCCC(C(=O)O)C3)c2)c1` (centres unmarked) [Example 9.66, 3-hydroxy-3-[5-(3-methyl-5-{[4-(trifluoromethyl)pyrimidin-2-yl]amino}phenyl)pyridin-3-yl]cyclohexanecarboxylic acid], the IC50 is less than 100 nM.

With `CCOC(=O)CCc1cc(-c2cc(C)cc(Nc3nccc(C4CC4)n3)c2)ccn1` [Example 2.136, ethyl 3-(4-{3-[(4-cyclopropylpyrimidin-2-yl)amino]-5-methylphenyl}pyridin-2-yl)propanoate], the IC50 lay in the range of 100 to 1000 nM.

Consider `Cc1cc(Nc2nccc(C(F)(F)F)n2)cc(-c2cncc(C3(O)COC(C)(C)OC3)c2)c1` [Example 9.78, 2,2-dimethyl-5-[5-(3-methyl-5-{[4-(trifluoromethyl)pyrimidin-2-yl]amino}phenyl)pyridin-3-yl]-1,3-dioxan-5-ol], for which the IC50 lay in the range of 100 to 1000 nM.

In the case of `COc1ccnc(Nc2cc(C)cc(-c3ccc(CCC(=O)O)nc3)c2)n1` [Example 2.83, 3-(5-{3-[(4-methoxypyrimidin-2-yl)amino]-5-methylphenyl}pyridin-2-yl)propanoic acid], the IC50 was less than 100 nM.

As to `Cc1cc(Nc2nccc(C(F)(F)F)n2)cc(-c2ccc(/C=C(/F)C(=O)O)nc2)c1` [Example 24.4, (2E)-2-Fluoro-3-[5-(3-methyl-5-{[4-(trifluoromethyl)pyrimidin-2-yl]amino}phenyl)pyridin-2-yl]prop-2-enoic acid], the IC50 was less than 100 nM.

In the case of `Cc1cc(Nc2nccc(C(F)(F)F)n2)cc(-c2ccc(N3CC(C4CCCC(C(=O)O)C4)C3)nc2)c1` (centres unmarked) [Example 7.146, 3-{1-[5-(3-methyl-5-{[4-(trifluoromethyl)pyrimidin-2-yl]amino}phenyl)pyridin-2-yl]azetidin-3-yl}cyclohexanecarboxylic acid], the IC50 is less than 100 nM.

As to `Cc1cc(Nc2nccc(C(F)(F)F)n2)cc(-c2ccc(C(=O)N3CCN(C)C(=O)C3C)nc2)c1` (centres unmarked) [Example 16.23, 1,3-dimethyl-4-{[5-(3-methyl-5-{[4-(trifluoromethyl)pyrimidin-2-yl]amino}phenyl)pyridin-2-yl]carbonyl}piperazin-2-one], the IC50 was 100 to 1000 nM.

In the case of `Cc1cc(Nc2nccc(C(F)(F)F)n2)cc(-c2ccc(C(=O)NC(C)c3ccccn3)nc2)c1` (centres unmarked) [Example 16.22, 5-(3-methyl-5-{[4-(trifluoromethyl)pyrimidin-2-yl]amino}phenyl)-N-(1-pyridin-2-ylethyl)pyridine-2-carboxamide], the IC50 was 100 to 1000 nM.

In the case of `Cc1cc(Nc2nccc(C(F)(F)F)n2)cc(-c2ccc(C(=O)NC3CC3)nc2)c1` [Example 2.71, N-cyclopropyl-5-(3-methyl-5-{[4-(trifluoromethyl)pyrimidin-2-yl]amino}phenyl)pyridine-2-carboxamide], the IC50 fell in the range of 100 to 1000 nM.

Take `Cc1cc(Nc2nccc(C(F)(F)F)n2)cc(-c2ccc(N[C@@H](C)C(=O)O)nc2)c1` [Example 7.86, N-[5-(3-methyl-5-{[4-(trifluoromethyl)pyrimidin-2-yl]amino}phenyl)pyridin-2-yl]-L-alanine]: the IC50 was less than 100 nM.

`Cc1cc(Nc2nccc(C(F)(F)F)n2)cc(-c2ccc(N3CCCC4(C3)OCCO4)nc2)c1` [Example 7.12, N-{3-[6-(1,4-dioxa-7-azaspiro[4.5]dec-7-yl)pyridin-3-yl]-5-methylphenyl}-4-(trifluoromethyl)pyrimidin-2-amine]: the IC50 lay in the range of 100 to 1000 nM.

Turning to `Cc1cc(Nc2nccc(C(F)(F)F)n2)cc(-c2ccc(C(=O)N3CCN(C)CC3)nc2)c1` [Example 16.12, N-(3-methyl-5-{6-[(4-methylpiperazin-1-yl)carbonyl]pyridin-3-yl}phenyl)-4-(trifluoromethyl)pyrimidin-2-amine], the IC50 was in the range of 100 to 1000 nM.

`Cc1cc(Nc2ncc(F)c(C3CC3)n2)cc(-c2ccc(NC(C)(C)C(=O)O)nc2)c1` [Example 7.159, N-(5-{3-[(4-cyclopropyl-5-fluoropyrimidin-2-yl)amino]-5-methylphenyl}pyridin-2-yl)-2-methylalanine]: the IC50 was less than 100 nM.

For `Cc1cc(Nc2nccc(C(F)(F)F)n2)cc(-c2ccc(NC(C)(C)C#N)nc2)c1` [Example 7.114, 2-methyl-2-{[5-(3-methyl-5-{[4-(trifluoromethyl)pyrimidin-2-yl]amino}phenyl)pyridin-2-yl]amino}propanenitrile], the IC50 is less than 100 nM.
